Laboratory results published in ChEMBL document CHEMBL1142024, “Glucokinase-activating ureas” (Bioorg Med Chem Lett, 2005).
Active and inactive are the calls of the source. No cut-off for these calls is given here.

Tests used:
Hexokinase-4 [1] = biological target: T1, Hexokinase-4 (Rattus norvegicus, UniProt P17712); test: Effective concentration for glucokinase activation with 5 mM glucose; format: functional
T1 sequence (P17712 whole entry): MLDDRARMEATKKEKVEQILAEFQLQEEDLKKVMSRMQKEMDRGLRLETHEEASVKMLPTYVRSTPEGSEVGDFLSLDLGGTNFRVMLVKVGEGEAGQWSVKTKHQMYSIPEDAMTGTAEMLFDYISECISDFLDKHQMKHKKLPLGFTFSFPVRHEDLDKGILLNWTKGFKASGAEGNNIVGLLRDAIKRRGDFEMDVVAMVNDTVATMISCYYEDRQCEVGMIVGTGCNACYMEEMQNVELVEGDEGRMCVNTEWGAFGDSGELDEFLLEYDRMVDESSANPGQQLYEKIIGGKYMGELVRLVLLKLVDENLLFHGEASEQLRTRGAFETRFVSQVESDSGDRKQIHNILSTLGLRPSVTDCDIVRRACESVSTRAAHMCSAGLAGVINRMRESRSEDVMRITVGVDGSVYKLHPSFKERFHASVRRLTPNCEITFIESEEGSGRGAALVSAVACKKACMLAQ

Hexokinase-4 [2] = biological target: T1, Hexokinase-4; test: Effective concentration for glucokinase activity; NA - No activation at 30 uM; format: functional
[3] = biological target: T2, Hexokinase-4 (Rattus norvegicus) (UniProt P17712); test: Maximal activation of glucokinase; NA - No activation at 30 uM
T2 sequence (whole entry): T1 sequence (P17712 whole entry)

Hexokinase-4 [4] = biological target: T1, Hexokinase-4; test: Effective concentration for glucokinase activation with 15 mM glucose; format: functional
[5] = biological target: T2, Hexokinase-4 (Rattus norvegicus); test: Maximal activation of glucokinase at 15 mM glucose
Hexokinase-4 [6] = biological target: T1, Hexokinase-4; test: Effective concentration for glucokinase activation; NA - No activation at 30 uM; format: functional

Row | Structure (SMILES) | EC50 (Hexokinase-4 [1]) [µM] | further results
1 | O=C(Nc1nccs1)N(CC1CCCC1)c1ccc(F)c(F)c1 | 16.3 | 
2 | NC(=O)c1cccc(N(CC2CCCC2)C(=O)Nc2ncc(Cl)s2)c1 | 1 | 
3 | COc1cccc(N(CC2CCCC2)C(=O)Nc2ncc(Cl)s2)c1 | 1.4 | 
4 | O=C(Nc1ncc(Cl)s1)N(CC1CCCC1)c1ccc(Br)c(F)c1 | 0.7 | 
5 | CS(=O)(=O)c1ccc(N(CC2CCCC2)C(=O)Nc2nnc(C(F)(F)F)s2)cc1 | 34.2 | 
6 | O=C(Nc1ncc(Cl)s1)N(CC1CCCC1)c1ccc(C(F)(F)F)cc1 | 1.3 | 
7 | CS(=O)(=O)c1ccc(N(Cc2nccs2)C(=O)Nc2ncc(Br)s2)cc1 | 24.1 | 
8 | O=C(Nc1ncc(Cl)s1)N(CC1CCCC1)c1ccc(Oc2ccccc2)cc1 |  | EC50 (Hexokinase-4 [2]): Not Active; Activity [3]: inactive
9 | COc1ccc(N(CC2CCCC2)C(=O)Nc2ncc(Br)s2)cn1 | 2 | 
10 | CS(=O)(=O)c1ccc(N(Cc2ccco2)C(=O)Nc2ncc(Cl)s2)cc1 | 11.5 | 
11 | CS(=O)(=O)c1ccc(C(CC2CCCC2)C(=O)Nc2nccs2)cc1 (stereo not given) | 2.2 | EC50 (Hexokinase-4 [4]): 1 µM; Activity [5]: 1.6
12 | Cc1ccc(N(CC2CCCC2)C(=O)Nc2ncc(Cl)s2)cc1Cl | 0.4 | 
13 | NS(=O)(=O)c1ccc(N(CC2CCCC2)C(=O)Nc2ncc(Cl)s2)cc1 | 1.8 | 
14 | COc1ccc(N(CC2CCCC2)C(=O)Nc2nncs2)cn1 |  | EC50 (Hexokinase-4 [6]): Not Active; Activity [3]: inactive
15 | CC(=O)Nc1cccc(N(CC2CCCC2)C(=O)Nc2ncc(Cl)s2)c1 | 0.3 | 
16 | CS(=O)(=O)c1ccc(N(CC2CCCC2)C(=O)Nc2nc3ccc(S(C)(=O)=O)cc3s2)cc1 | 32.9 | 

Row | Structure (SMILES) | EC50 (Hexokinase-4 [1]) [µM] | further results
17 | CS(=O)(=O)c1ccc(N(CC2CCOCC2)C(=O)Nc2ncc(Cl)s2)cc1 | 4.9 | 
18 | CS(=O)(=O)c1ccc(N(CC2CCCO2)C(=O)Nc2ncc(Cl)s2)cc1 (stereo not given) | 21.6 | 
19 | COc1ccc(N(CC2CCCC2)C(=O)NC2=NC(=O)CS2)cn1 | 29.1 | 
20 | COc1ccc(N(CC2CCCC2)C(=O)Nc2nccs2)cn1 | 19.2 | 
21 | CS(=O)(=O)c1ccc(N(Cc2ccsc2)C(=O)Nc2ncc(Br)s2)cc1 | 6.5 | 
22 | CS(=O)(=O)c1ccc(N(CC2CCCC2)C(=O)Nc2ncc(Cl)s2)cc1 | 1.5 | 
23 | N#Cc1ccc(N(CC2CCCC2)C(=O)Nc2ncc(Cl)s2)cc1 | 2.4 | 
24 | O=C(Nc1ncc(Cl)s1)N(CC1CCCC1)c1ccc(N2CCOCC2)cc1 |  | EC50 (Hexokinase-4 [2]): Not Active; Activity [3]: inactive
25 | CS(=O)(=O)c1ccc(N(Cc2cccs2)C(=O)Nc2ncc(Cl)s2)cc1 | 6.6 | 
26 | CS(=O)(=O)c1ccc(N(Cc2ccsc2)C(=O)Nc2ncc(Cl)s2)cc1 | 6.8 | 
27 | O=C(Nc1ncc(Cl)s1)N(CC1CCCC1)c1ccc(F)c(F)c1 | 2.6 | 
28 | COc1ccc(N(CC2CCCC2)C(=O)Nc2ncc(Cl)s2)cn1 | 2.7 | 
29 | CS(=O)(=O)c1ccc(N(CC2CCCC2)C(=O)Nc2nccs2)cc1 | 16 | EC50 (Hexokinase-4 [4]): 9.7 µM; Activity [5]: 2.8
30 | O=C(Nc1ccccn1)N(CC1CCCC1)c1ccc(F)c(F)c1 |  | EC50 (Hexokinase-4 [6]): Not Active; Activity [3]: inactive
31 | N#Cc1ccc(N(CC2CCCC2)C(=O)Nc2ncc(Cl)s2)cn1 | 7.7 | 
32 | CS(=O)(=O)c1ccc(N(CC2CCOC2)C(=O)Nc2ncc(Cl)s2)cc1 (stereo not given) | 21.9 | 
